The nature of data set [1]: Evaluation 2 of curability (triethanolamine added as hydrogen donor). Here is the method: (§1) Using a trifunctional acrylate (product name; M-305, manufactured by Toagosei Co., Ltd.) as polyfunctional monomers, the compounds 1 to 14, the comparative compounds 2 and 3 and a photoradical generator Irgacure 907 (product name; manufactured by Ciba Specialty Chemicals) were mixed with each polyfunctional monomer to prepare each THF solution of each photoradical generator.
(§2) The mixing was performed so that a ratio of the photoradical generator to the polyfunctional monomer is such that number of imide part of each of the compounds 1 to 14 and the comparative compounds 2 and 3 with respect to number of double bond of the polyfunctional monomer is 1/50 (number of imide part/number of polyfunctional monomer) or, in the case of Irgacure, number of the molecule with respect to number of double bond of the polyfunctional monomer is 1/50 (number of Irgacure 907/number of polyfunctional monomer).
(§3) Each solution was applied by spin coating to a glass substrate on which chromium was sputtered to obtain coating layers. Also, a layer without initiator component or comparative compounds and only containing trifunctional acrylate was formed as a blank.
(§4) A decrement of the peak at 810 cm^−1 was recorded with time by using an infrared spectrometer (product name: FTS6000; manufactured by BIO RAD) while exposing the above coating layer to ultraviolet rays, to confirm the degree of the disappearance of a double bond. The atmosphere around the sample during measurement was replaced with nitrogen. As the UV exposure apparatus, UV Spot Cure SP-III type (standard reflecting mirror type) manufactured by Ushio Inc. was used and as the UV lamp, USH-255BY (manufactured by Ushio Inc.) was used.
In order to confirm whether or not the seven-membered ring imide structure-containing group was a hydrogen-drawing type radical generator, triethanolamine was added to THF solutions containing each of the compositions 1 to 14 used in the aforementioned Evaluation 1 of curability and trifunctional acrylate M305, coating layers were formed in the same manner as in the aforementioned Evaluation 1 of curability, and evaluated similarly. As comparative examples, each of the comparative compounds 1 and 3 was used.

The nature of data set [2]: Evaluation of heat resistance (thermogravimetry, 5% reduction in weight temperature). In kind it is physicochemical. As to conditions: for 5% heat decomposition temperature: temperature rise rate 10° C./min; for residue on heating: heated to 600° C. in a nitrogen atmosphere. Here is the method: Herein, the 5% reduction in weight temperature means a temperature at which the weight of a sample is reduced […] when a decrement of weight is measured using a thermogravimetric analyzer according to the same method as in the examples of the present invention as will be explained later. Similarly, the 10% reduction in weight temperature means a temperature at which the weight of a sample is reduced […].
Using a differential type differential thermal balance (product name: TG8120; manufactured by Rigaku Corporation), the 5% reduction in weight temperature of each of the compounds 1 to 15 was measured at a temperature rise rate of 10° C./min in a nitrogen atmosphere. As comparative examples, the comparative compounds 2 and 3 and a self-cleavage type photoradical generator Irgacure 907 (trademark; manufactured by Ciba Specialty Chemicals) were similarly measured.

Data set [3] can be described thus: Evaluation 1 of curability (coating layer with trifunctional acrylate, UV exposure, no hydrogen donor). As to conditions: for Reaction rate (decrement of double bond): nitrogen; for Compatibility with M305: imide part/double bond 1/50. Here is the method: as §1, §2, §3, §4

In the case of `C=CC(=O)OCCOCCOCCn1c(=O)c2ccccc2c2ccccc2c1=O` [Compound 9], the “Compatibility with M305” value in data set [1] and in data set [3] was “∘” in each case. Also, the “Reaction rate (decrement of double bond)” value in data set [1] (Exposure 50 mJ) is on record as 13.8%; in data set [1] (Exposure 100 mJ), 19.9%; in data set [1] (Exposure 400 mJ), 34.4%; in data set [3] (Exposure 50 mJ), 0.5%; in data set [3] (Exposure 100 mJ) it was 0.7%; in data set [3] (Exposure 400 mJ), 1.2%. Besides, the “5% heat decomposition temperature” value in data set [2] (nitrogen atmosphere) came out at 295 °C.
On to `O=c1c2ccccc2c2ccccc2c(=O)n1CCOCCn1c(=O)c2ccccc2c2ccccc2c1=O` [Compound 10], for which the “Compatibility with M305” value in data set [1] and in data set [3] was “∘” each time. The “Reaction rate (decrement of double bond)” value in data set [1] (Exposure 50 mJ) was found to be 30.8%; in data set [1] (Exposure 100 mJ) it was 40.7%; in data set [1] (Exposure 400 mJ), 45.9%; in data set [3] (Exposure 50 mJ) it was 4.0%; in data set [3] (Exposure 100 mJ), 6.8%; in data set [3] (Exposure 400 mJ), 17.4%. In addition, the “5% heat decomposition temperature” value in data set [2] (nitrogen atmosphere) turned out to be 204 °C.
`C=CC(=O)OCCn1c(=O)c2ccccc2c2ccccc2c1=O` [Compound 7]: the “Compatibility with M305” value in data set [1] and in data set [3] was “∘” each time. In addition, the “Reaction rate (decrement of double bond)” value is given as 25.3% in data set [1] (Exposure 50 mJ); 30.1% in data set [1] (Exposure 100 mJ); 41.3% in data set [1] (Exposure 400 mJ); 1.5% in data set [3] (Exposure 50 mJ); 3.4% in data set [3] (Exposure 100 mJ); 7.7% in data set [3] (Exposure 400 mJ). Besides, the residue on heating entry in data set [2] was “carbide was left not decomposed completely”. Moreover, the “5% heat decomposition temperature” value in data set [2] (nitrogen atmosphere) was 233 °C.
Take `CC(=O)OCC(C(C)C)n1c(=O)c2ccccc2c2ccccc2c1=O` (centres unmarked) [Compound 4]: the “Compatibility with M305” value in data set [1] and in data set [3] was “∘” in each case. The “Reaction rate (decrement of double bond)” value in data set [1] (Exposure 50 mJ) is reported as 22.0%; in data set [1] (Exposure 100 mJ), 28.2%; in data set [1] (Exposure 400 mJ) it was 40.0%; in data set [3] (Exposure 50 mJ), 0.2%; in data set [3] (Exposure 100 mJ), 0.4%; in data set [3] (Exposure 400 mJ) it was 0.9%. Further, the “5% heat decomposition temperature” value in data set [2] (nitrogen atmosphere) is 208 °C.
Consider `C=CC(=O)OCCN1C(=O)C2=C(CCCC2)C1=O` [compound 2, reference compound], for which the “Compatibility with M305” value in data set [1] and in data set [3] was “∘” each time. In addition, the “Reaction rate (decrement of double bond)” value in data set [1] (Exposure 50 mJ) stood at 1.3%; in data set [1] (Exposure 100 mJ), 2.0%; in data set [1] (Exposure 400 mJ), 8.6%; in data set [3] (Exposure 50 mJ), 0.1%; in data set [3] (Exposure 100 mJ), 0.3%; in data set [3] (Exposure 400 mJ) it was 2.0%. Further, the “5% heat decomposition temperature” value in data set [2] (nitrogen atmosphere) was found to be 184 °C.
In the case of `CC(=O)OCCOCCn1c(=O)c2ccccc2c2ccccc2c1=O` [Compound 3], the “Compatibility with M305” value in data set [1] and in data set [3] was “∘” throughout. Moreover, the “Reaction rate (decrement of double bond)” value in data set [1] (Exposure 50 mJ) is recorded as 26.8%; in data set [1] (Exposure 100 mJ), 32.7%; in data set [1] (Exposure 400 mJ), 43.7%; in data set [3] (Exposure 50 mJ), 0.1%; in data set [3] (Exposure 100 mJ), 0.2%; in data set [3] (Exposure 400 mJ) it was 0.8%. In addition, the “5% heat decomposition temperature” value in data set [2] (nitrogen atmosphere) amounted to 260 °C.
`CC(=O)OCCN(CCn1c(=O)c2ccccc2c2ccccc2c1=O)C(C)=O` [Compound 14]: the “Compatibility with M305” value in data set [1] and in data set [3] was “∘” each time. The “Reaction rate (decrement of double bond)” value in data set [1] (Exposure 50 mJ) is 16.8%; in data set [1] (Exposure 100 mJ) it was 20.9%; in data set [1] (Exposure 400 mJ), 30.5%; in data set [3] (Exposure 50 mJ), 1.0%; in data set [3] (Exposure 100 mJ) it was 2.0%; in data set [3] (Exposure 400 mJ), 6.4%. In data set [2] (nitrogen atmosphere), the “5% heat decomposition temperature” value was 234 °C.
`C=COCCCn1c(=O)c2ccccc2c2ccccc2c1=O` [Compound 5]: the “Compatibility with M305” value in data set [1] and in data set [3] was “∘” throughout. For the same molecule, the “Reaction rate (decrement of double bond)” value came to 23.8% in data set [1] (Exposure 50 mJ); 29.2% in data set [1] (Exposure 100 mJ); 41.0% in data set [1] (Exposure 400 mJ); 0.4% in data set [3] (Exposure 50 mJ); 0.7% in data set [3] (Exposure 100 mJ); 2.3% in data set [3] (Exposure 400 mJ). Moreover, the “5% heat decomposition temperature” value in data set [2] (nitrogen atmosphere) came out at 213 °C.
As to `O=c1c2ccccc2c2ccccc2c(=O)n1CCOCCOCCOCCn1c(=O)c2ccccc2c2ccccc2c1=O` [Compound 11], the “Compatibility with M305” value in data set [1] and in data set [3] was “∘” throughout. Besides, the “Reaction rate (decrement of double bond)” value in data set [1] (Exposure 50 mJ) is recorded as 18.0%; in data set [1] (Exposure 100 mJ) it was 21.3%; in data set [1] (Exposure 400 mJ) it was 29.4%; in data set [3] (Exposure 50 mJ), 27.9%; in data set [3] (Exposure 100 mJ) it was 37.3%; in data set [3] (Exposure 400 mJ) it was 42.3%. Further, the “5% heat decomposition temperature” value in data set [2] (nitrogen atmosphere) came out at 240 °C.
Regarding `C=CC(=O)OCCOCCn1c(=O)c2ccccc2c2ccccc2c1=O` [Compound 8], the “Compatibility with M305” value in data set [1] and in data set [3] was “∘” in each case. Further, the “Reaction rate (decrement of double bond)” value in data set [1] (Exposure 50 mJ) turned out to be 36.2%; in data set [1] (Exposure 100 mJ), 41.4%; in data set [1] (Exposure 400 mJ), 51.4%; in data set [3] (Exposure 50 mJ) it was 5.0%; in data set [3] (Exposure 100 mJ), 7.3%; in data set [3] (Exposure 400 mJ) it was 21.4%. For the same molecule, the “heat resistance / 5% reduction in weight temperature, comparison in words” value in data set [2] (10° C./min, nitrogen atmosphere) is listed as “specifically high”. Also, the residue on heating result in data set [2] is on record as “carbide was left not decomposed completely”. The “5% heat decomposition temperature” value in data set [2] (nitrogen atmosphere) came out at 357 °C.
Turning to `CSc1ccc(C(=O)C(C)(C)N2CCOCC2)cc1` [Irg907, reference compound], the “5% heat decomposition temperature” value in data set [2] (nitrogen atmosphere) is 207 °C. In addition, the entries for the “Reaction rate (decrement of double bond)” value in data set [3] (Exposure 50 mJ), in data set [3] (Exposure 100 mJ) and in data set [3] (Exposure 400 mJ) were 34.8%, 40.8% and 50.6%, respectively. In data set [3], the “Compatibility with M305” value is “∘”.
As to `O=c1c2ccccc2c2ccccc2c(=O)n1CCOCCOCCOCCOCCOCCn1c(=O)c2ccccc2c2ccccc2c1=O` [Compound 12], the “Compatibility with M305” value in data set [1] and in data set [3] was “∘” in each case. Further, the “Reaction rate (decrement of double bond)” value in data set [1] (Exposure 50 mJ) was 25.2%; in data set [1] (Exposure 100 mJ), 30.7%; in data set [1] (Exposure 400 mJ), 40.6%; in data set [3] (Exposure 50 mJ) it was 11.0%; in data set [3] (Exposure 100 mJ), 15.2%; in data set [3] (Exposure 400 mJ) it was 24.8%. Moreover, the “5% heat decomposition temperature” value in data set [2] (nitrogen atmosphere) came to 276 °C.
On to `CC(=O)OCCOCCOCCn1c(=O)c2ccccc2c2ccccc2c1=O` [Compound 6], for which the “Compatibility with M305” value in data set [1] and in data set [3] was “∘” in each case. In addition, the “Reaction rate (decrement of double bond)” value is on record as 33.1% in data set [1] (Exposure 50 mJ); 37.9% in data set [1] (Exposure 100 mJ); 47.9% in data set [1] (Exposure 400 mJ); 3.2% in data set [3] (Exposure 50 mJ); 5.4% in data set [3] (Exposure 100 mJ); 14.2% in data set [3] (Exposure 400 mJ). Further, the “5% heat decomposition temperature” value in data set [2] (nitrogen atmosphere) came out at 257 °C.
In the case of `CC(=O)OCCn1c(=O)c2ccccc2c2ccccc2c1=O` [Compound 2], the “Compatibility with M305” value in data set [1] and in data set [3] was “∘” in each case. Moreover, the “Reaction rate (decrement of double bond)” value in data set [1] (Exposure 50 mJ) is on record as 23.7%; in data set [1] (Exposure 100 mJ) it was 29.4%; in data set [1] (Exposure 400 mJ), 41.1%; in data set [3] (Exposure 50 mJ) it was 0.1%; in data set [3] (Exposure 100 mJ), 0.2%; in data set [3] (Exposure 400 mJ), 1.2%. Besides, in data set [2] (nitrogen atmosphere), the “5% heat decomposition temperature” value came to 240 °C.

Values taken from patent US7528205B2, “Photo radical generator, photo sensitive resin composition and article” (Dai Nippon Printing Co., Ltd., priority 2003, dated 2009).
